Test results reported in patent publication US11702417B2, “Compounds for improving mRNA splicing” (The General Hospital Corporation, priority 2015, dated 2023).

Tested on: FD (familial dysautomonia) IKBKAP minigene, exon 20 inclusion, in HEK293T cells
Assay: Primary splicing assay (FD IKBKAP minigene, Firefly/Renilla luciferase reporter in HEK293T)
Assay type: cell-based, human
Conditions: Homo sapiens, HEK-293T, Firefly/Renilla ratio, 24 hours of treatment; for Emax: max efficacy in Primary Assay, kinetin and DMSO as positive and negative controls, read-out: Emax (%); for EC (maximum kinetin efficacy): HEK293T, read-out: ECk (compound concentration at which the maximum kinetin efficacy (200 μM) is reached)

Row | SMILES | Emax | EC (maximum kinetin efficacy)
1 | CSc1nc(NCc2nccs2)n2ncnc2n1 [(342)] | 16% | –
2 | O=c1[nH]c2c(NCc3nccs3)nc(Cl)nc2n1C1CCCCO1 (stereo not shown) [(344)] | 18.4% | –
3 | Clc1nc(NCc2ccccn2)c2cc[nH]c2n1 [(350)] | 49.5% | –
4 | COc1nc2c(N(C)Cc3nccs3)nc(Cl)nc2[nH]1 [(351)] | 22% | –
5 | Fc1ccccc1CNc1nc(Cl)nc2[nH]cnc12 [(352)] | 25% | –
6 | Clc1nc(NCc2cnccn2)c2cc[nH]c2n1 [(353)] | 78% | –
7 | Fc1ccccc1CNc1nc(Cl)nc2[nH]ccc12 [(354)] | 57.5% | –
8 | Clc1nc(NCc2cccnc2)c2cc[nH]c2n1 [(355)] | 26% | –
9 | Clc1nc(NCc2ccccn2)c2nc[nH]c2n1 [(356)] | 17% | –
10 | CC(Nc1nc(Cl)nc2[nH]ccc12)c1ccncc1 (stereo not shown) [(359)] | 31.5% | –
11 | Cn1cccc1CNc1nc(Cl)nc2[nH]ccc12 [(360)] | 12.3% | –
12 | Clc1nc(NCc2ncccn2)c2cc[nH]c2n1 [(361)] | 9.8% | –
13 | CN(Cc1nccs1)c1nc(Cl)nc2[nH]ccc12 [(363)] | 53.2% | –
14 | CC(Nc1nc(Cl)nc2[nH]ccc12)c1nccs1 (stereo not shown) [(364)] | 18.2% | –
15 | COc1nc(NCc2ccco2)c2nc(OC)[nH]c2n1 [(365)] | 22.4% | –
16 | CC(Nc1nc(Cl)nc2[nH]cnc12)c1ccncc1 (stereo not shown) [(366)] | 19.2% | –
17 | Fc1nc(NCc2nccs2)c2nc[nH]c2n1 [(367)] | 94% | –
18 | CC(Nc1nc(Cl)nc2[nH]cnc12)c1nccs1 (stereo not shown) [(368)] | 2.4% | –
19 | CN(Cc1ccncc1)c1nc(Cl)nc2[nH]ccc12 [(369)] | 57.8% | –
20 | COc1nc2c(NC(C)c3nccs3)nc(Cl)nc2[nH]1 (stereo not shown) [(370)] | 33% | –
21 | Fc1nc(NCc2ccncc2)c2nc[nH]c2n1 [(371)] | 82% | –
22 | Clc1nc(NCc2cncs2)c2cc[nH]c2n1 [(373)] | 25.1% | –
23 | COc1nc2c(NCc3cnccn3)nc(Cl)nc2[nH]1 [(374)] | 34.2% | –
24 | COc1nc2c(NCc3cscn3)nc(Cl)nc2[nH]1 [(375)] | 134% | 2.18 µM

Row | SMILES | Emax | EC (maximum kinetin efficacy)
25 | COc1nc2c(NCc3cncs3)nc(Cl)nc2[nH]1 [(376)] | 23.5% | –
26 | O=c1[nH]c2nc(Cl)nc(NCc3nccs3)c2[nH]1 [(377)] | 101% | 7.21 µM
27 | Clc1nc(NCc2cncs2)c2nc[nH]c2n1 [(378)] | 31.8% | –
28 | Fc1nc(NCc2nccs2)c2cc[nH]c2n1 [(379)] | 95% | –
29 | Fc1nc(NCc2ccncc2)c2cc[nH]c2n1 [(380)] | 108% | 4.38 µM
30 | Clc1nc(NCc2cscn2)c2nc[nH]c2n1 [(381)] | 63.4% | –
31 | FC(F)COc1nc2c(NCc3ccncc3)nc(Cl)nc2[nH]1 [(382)] | 193% | 1.31 µM
32 | COc1cccc(Nc2nc(Cl)nc3[nH]cnc23)c1 [(383)] | 30.3% | –
33 | FC(F)COc1nc2c(NCc3ccco3)nc(Cl)nc2[nH]1 [(384)] | 152% | 1.08 µM
34 | COc1nc2c(NCc3nccs3)nc(C#N)nc2[nH]1 [(385)] | 46% | –
35 | COc1nc2c(N(CCO)Cc3nccs3)nc(Cl)nc2[nH]1 [(386)] | 69.2% | –
36 | FC1(F)CC(COc2nc3c(NCc4ccco4)nc(Cl)nc3[nH]2)C1 [(387)] | 238% | 0.33 µM
37 | CC(F)(F)COc1nc2c(NCc3nccs3)nc(Cl)nc2[nH]1 [(388)] | 215% | 0.68 µM
38 | CCCOc1nc2c(NCc3cscn3)nc(Cl)nc2[nH]1 [(389)] | 211% | 0.73 µM
39 | CC(F)(F)COc1nc2c(NCc3ccco3)nc(Cl)nc2[nH]1 [(390)] | 201% | 0.74 µM
40 | FC(F)(F)CCOc1nc2c(NCc3nccs3)nc(Cl)nc2[nH]1 [(391)] | 193% | 1.02 µM
41 | FC(F)(F)COc1nc2c(NCc3cscn3)nc(Cl)nc2[nH]1 [(392)] | 134% | 1.9 µM
42 | CCCOc1nc2c(N(CCO)Cc3nccs3)nc(Cl)nc2[nH]1 [(393)] | 85.2% | 7.4 µM
43 | O=C1OCCN1CCOc1nc2c(NCc3nccs3)nc(Cl)nc2[nH]1 [(394)] | 4.8% | –
44 | FC(F)COc1nc2c(NCc3cscn3)nc(Cl)nc2[nH]1 [(395)] | 180% | 1.8 µM
45 | O=C1CCCN1CCOc1nc2c(NCc3ccco3)nc(Cl)nc2[nH]1 [(396)] | 38.7% | –
46 | CC(=O)NCCOc1nc2c(NCc3nccs3)nc(Cl)nc2[nH]1 [(397)] | 26.3% | –
47 | FC(F)(F)CCOc1nc2c(NCc3ccco3)nc(Cl)nc2[nH]1 [(398)] | 176% | 0.94 µM
